According to ChEMBL document CHEMBL1201862, “PubChem BioAssay data set” (2004):
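Values below derive from 48-hour exposures of cells grown in 96-well plates, with endpoints linearly interpolated between the two concentrations bracketing the appropriate inhibition level. GI50: concentration for 50% inhibition of growth.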 Activity calls are given as the source filed them. No stated cut-off is given here; in the data, active = GI50 up to about 1.1 µM and inactive = higher.

What was measured:
Experiment in all cases: DTP human tumour cell line panel, 48 h
SNB-75 = test system: SNB-75
SF-268 = test system: SF-268
HT-29 = test system: HT-29
CCRF-CEM = test system: CCRF-CEM
COLO 205 = test system: COLO 205
SR = test system: SR
A498 = test system: A498
M14 = test system: M14
HCT-116 = test system: HCT-116
A549 = test system: A549
T47D = test system: T47D
TK-10 = test system: TK-10
NCI-H23 = test system: NCI-H23
K562 = test system: K562
BT-549 = test system: BT-549
NCI-H522 = test system: NCI-H522
HOP-92 = test system: HOP-92
RXF 393 = test system: RXF 393
OVCAR-8 = test system: OVCAR-8

SMILES	GI50 (SNB-75)	GI50 (SF-268)	GI50 (HT-29)	GI50 (CCRF-CEM)	GI50 (COLO 205)	GI50 (SR)	GI50 (A498)	GI50 (M14)	GI50 (HCT-116)	GI50 (A549)	GI50 (T47D)	GI50 (TK-10)	GI50 (NCI-H23)	GI50 (K562)	GI50 (BT-549)	GI50 (NCI-H522)	GI50 (HOP-92)	GI50 (RXF 393)	GI50 (OVCAR-8)
CC(C)(C)OC(=O)N1C(c2cccnc2)=CC[C@H]2C3CC=C(c4cccnc4)[C@@]3(C)CC[C@@H]21 (stereo partly drawn)	5.6 µM (inactive)	2.9 µM (inactive)	3.53 µM (inactive)	3.99 µM (inactive)	1.74 µM (inactive)	3.28 µM (inactive)	5.81 µM (inactive)	4.75 µM (inactive)	4.04 µM (inactive)	3.37 µM (inactive)	4.16 µM (inactive)	4.22 µM (inactive)	3.4 µM (inactive)	0.52 µM (active)	4.53 µM (inactive)	2.92 µM (inactive)	2.52 µM (inactive)	3.32 µM (inactive)	4.02 µM (inactive)
O=S(=O)(CCCCl)SCCCCl	33 µM (inactive)	26.7 µM (inactive)	25.9 µM (inactive)	9.1 µM (inactive)	29 µM (inactive)	10.4 µM (inactive)	> 55.6 µM (inactive)	21.5 µM (inactive)	20.9 µM (inactive)	68.4 µM (inactive)	26.9 µM (inactive)	74.6 µM (inactive)	45.1 µM (inactive)	7.5 µM (inactive)	11.2 µM (inactive)	17.1 µM (inactive)	25 µM (inactive)	30.3 µM (inactive)	13.3 µM (inactive)
CCOC(=O)CC[C@H](N)C(=O)N[C@H](Cc1ccc(N(CCCl)CCCl)cc1)C(=O)OCC	0.468 µM (active)	0.414 µM (active)	3.92 µM (inactive)	1.96 µM (inactive)	0.977 µM (active)	0.09 µM (active)	8.53 µM (inactive)	1.42 µM (inactive)	5.78 µM (inactive)	3.54 µM (inactive)	0.239 µM (active)	2.26 µM (inactive)	0.857 µM (active)	> 34.4 µM (inactive)	9.25 µM (inactive)	1.41 µM (inactive)	0.561 µM (active)	0.879 µM (active)	2.97 µM (inactive)
N=c1oc2ccc([N+](=O)[O-])cc2cc1C(=O)Nc1ccccn1	60.1 µM (inactive)	34.8 µM (inactive)	49.8 µM (inactive)	31.5 µM (inactive)	44 µM (inactive)	58.1 µM (inactive)	> 100 µM (inactive)	36.8 µM (inactive)	32.4 µM (inactive)	> 100 µM (inactive)	26.8 µM (inactive)	–	41.3 µM (inactive)	> 100 µM (inactive)	48.4 µM (inactive)	24.5 µM (inactive)	71.9 µM (inactive)	31.2 µM (inactive)	92.3 µM (inactive)
Cc1nn(-c2ccccc2)c2c1CC(=O)Nc1ccccc1-2	0.482 µM (active)	1.63 µM (inactive)	0.424 µM (active)	0.44 µM (active)	0.538 µM (active)	0.269 µM (active)	1.59 µM (inactive)	0.553 µM (active)	0.409 µM (active)	1.61 µM (inactive)	> 10 µM (inactive)	0.566 µM (active)	1.6 µM (inactive)	0.412 µM (active)	0.687 µM (active)	0.509 µM (active)	4.18 µM (inactive)	0.313 µM (active)	2.06 µM (inactive)
O=C(Cn1ccc(=O)[nH]c1=O)Nc1ccc(C(=O)O)c(O)c1	> 100 µM (inactive)	> 100 µM (inactive)	> 100 µM (inactive)	> 100 µM (inactive)	> 100 µM (inactive)	> 100 µM (inactive)	> 100 µM (inactive)	> 100 µM (inactive)	> 100 µM (inactive)	> 100 µM (inactive)	> 100 µM (inactive)	> 100 µM (inactive)	> 100 µM (inactive)	> 100 µM (inactive)	> 100 µM (inactive)	> 100 µM (inactive)	> 100 µM (inactive)	> 100 µM (inactive)	> 100 µM (inactive)
CSc1ncc2c(n1)-c1ccccc1OC2NC1CC1 (stereo not drawn)	59 µM (inactive)	92.7 µM (inactive)	> 100 µM (inactive)	31.4 µM (inactive)	> 100 µM (inactive)	> 100 µM (inactive)	13.7 µM (inactive)	> 100 µM (inactive)	64.1 µM (inactive)	> 100 µM (inactive)	28.6 µM (inactive)	32.7 µM (inactive)	73.6 µM (inactive)	54 µM (inactive)	38 µM (inactive)	24.8 µM (inactive)	43.9 µM (inactive)	> 100 µM (inactive)	71.4 µM (inactive)
O=C1[C@@H]2[C@@H](c3ccccc3)[C@]2(Cl)C(=O)[C@H]2[C@H](c3ccccc3)[C@@]12Cl	> 100 µM (inactive)	> 100 µM (inactive)	> 100 µM (inactive)	> 100 µM (inactive)	> 100 µM (inactive)	0.189 µM (active)	> 100 µM (inactive)	> 100 µM (inactive)	> 100 µM (inactive)	> 100 µM (inactive)	> 100 µM (inactive)	> 100 µM (inactive)	> 100 µM (inactive)	> 100 µM (inactive)	45.8 µM (inactive)	> 100 µM (inactive)	> 100 µM (inactive)	> 100 µM (inactive)	> 100 µM (inactive)
NC(CSCc1ccccc1)C(=O)O (stereo not drawn)	> 100 µM (inactive)	> 100 µM (inactive)	> 100 µM (inactive)	> 100 µM (inactive)	> 100 µM (inactive)	> 100 µM (inactive)	> 100 µM (inactive)	> 100 µM (inactive)	> 100 µM (inactive)	> 100 µM (inactive)	> 100 µM (inactive)	> 100 µM (inactive)	> 100 µM (inactive)	> 100 µM (inactive)	> 100 µM (inactive)	> 100 µM (inactive)	> 100 µM (inactive)	> 100 µM (inactive)	> 100 µM (inactive)
CCCCC(=O)NC1(c2cc3ccccc3s2)CCCCC1	> 100 µM (inactive)	> 100 µM (inactive)	> 100 µM (inactive)	19.4 µM (inactive)	> 100 µM (inactive)	> 100 µM (inactive)	> 100 µM (inactive)	> 100 µM (inactive)	> 100 µM (inactive)	> 100 µM (inactive)	> 100 µM (inactive)	> 100 µM (inactive)	> 100 µM (inactive)	> 100 µM (inactive)	> 100 µM (inactive)	> 100 µM (inactive)	> 100 µM (inactive)	> 100 µM (inactive)	80.4 µM (inactive)
CC(=O)N1C(=O)/C(=C\C(=O)c2ccc(Cl)cc2)c2ccccc21	17.7 µM (inactive)	18 µM (inactive)	4.32 µM (inactive)	2.61 µM (inactive)	9.44 µM (inactive)	2.48 µM (inactive)	19.2 µM (inactive)	16.5 µM (inactive)	9.29 µM (inactive)	13.5 µM (inactive)	16.5 µM (inactive)	15.6 µM (inactive)	15.6 µM (inactive)	12 µM (inactive)	4.19 µM (inactive)	10.9 µM (inactive)	18.3 µM (inactive)	15.3 µM (inactive)	14.1 µM (inactive)
CCCC(=O)Nc1cc(/C=C/C(=O)N2CC(CCl)c3c2cc([N+](=O)[O-])c2ccccc32)n(C)c1 (stereo not drawn)	6.12 µM (inactive)	> 100 µM (inactive)	> 100 µM (inactive)	3.84 µM (inactive)	> 100 µM (inactive)	0.796 µM (active)	8.49 µM (inactive)	> 100 µM (inactive)	11.9 µM (inactive)	8.89 µM (inactive)	> 100 µM (inactive)	> 100 µM (inactive)	1 µM (active)	0.738 µM (active)	> 73.3 µM (inactive)	> 100 µM (inactive)	> 100 µM (inactive)	59.4 µM (inactive)	16.5 µM (inactive)
O=C1CSC(/C=C/c2ccccc2)N1c1ccc(-c2ccc(-n3c(-c4ccccc4)nc4ccccc4c3=O)cc2)cc1 (stereo not drawn)	0.562 µM (active)	35.6 µM (inactive)	14.5 µM (inactive)	20.3 µM (inactive)	18.2 µM (inactive)	28.3 µM (inactive)	42.2 µM (inactive)	16.9 µM (inactive)	–	24 µM (inactive)	15.2 µM (inactive)	39.5 µM (inactive)	35.6 µM (inactive)	25.9 µM (inactive)	17.2 µM (inactive)	17.8 µM (inactive)	18 µM (inactive)	–	25.1 µM (inactive)
CC1(C)OC2COC(c3n[nH]c4c(=O)[nH]c(=O)[nH]c34)C2O1 (stereo not drawn)	–	> 100 µM (inactive)	> 100 µM (inactive)	–	> 100 µM (inactive)	> 100 µM (inactive)	> 100 µM (inactive)	> 100 µM (inactive)	> 100 µM (inactive)	> 100 µM (inactive)	> 100 µM (inactive)	> 100 µM (inactive)	> 100 µM (inactive)	> 100 µM (inactive)	> 100 µM (inactive)	> 100 µM (inactive)	74 µM (inactive)	> 100 µM (inactive)	> 100 µM (inactive)
CC(=O)OC1=NN=C2COC(c3ccccc3OC(C)=O)=NN2C1	15.8 µM (inactive)	34.8 µM (inactive)	39 µM (inactive)	> 50 µM (inactive)	40.1 µM (inactive)	> 50 µM (inactive)	–	16.7 µM (inactive)	> 50 µM (inactive)	> 50 µM (inactive)	> 50 µM (inactive)	> 50 µM (inactive)	> 50 µM (inactive)	> 50 µM (inactive)	> 50 µM (inactive)	> 50 µM (inactive)	> 50 µM (inactive)	> 50 µM (inactive)	–
